Each structure is given as a SMILES string. Where two headings read alike, the source gives them in different places. Where only a bound is given, the exact number is not on record here.

In experiment [1] the target is T1, SOS1 (Homo sapiens, UniProt Q07889).
T1 construct: HIS-SOS1cat (160 nM; Cytoskeleton, US); His (N); purchased Cytoskeleton
T1 sequence (Q07889 564-1049 limits assumed): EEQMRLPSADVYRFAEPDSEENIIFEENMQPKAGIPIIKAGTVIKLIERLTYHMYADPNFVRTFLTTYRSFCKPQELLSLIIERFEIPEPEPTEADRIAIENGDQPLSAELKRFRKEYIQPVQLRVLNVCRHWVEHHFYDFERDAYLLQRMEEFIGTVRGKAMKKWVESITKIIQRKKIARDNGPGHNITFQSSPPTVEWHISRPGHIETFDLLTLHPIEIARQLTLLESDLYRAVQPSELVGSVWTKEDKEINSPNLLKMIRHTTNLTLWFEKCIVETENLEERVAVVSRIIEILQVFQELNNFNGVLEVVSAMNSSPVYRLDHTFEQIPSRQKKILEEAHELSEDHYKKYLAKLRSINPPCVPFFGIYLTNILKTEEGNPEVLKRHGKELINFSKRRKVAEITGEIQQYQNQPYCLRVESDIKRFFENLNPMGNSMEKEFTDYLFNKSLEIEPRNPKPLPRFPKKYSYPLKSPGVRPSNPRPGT
Kind of experiment: SOS-catalyzed nucleotide exchange assay (HTRF, SOS1-mediated GTP loading of KRAS G12D). Type of experiment: biochemical. A general note: In TR-FRET formats the signal depends on donor and acceptor labels being close together.

The target of experiment [2] is T2, KRAS G12C::SOS1 (Homo sapiens, UniProt Q07889).
T2 construct: purchased CISBIO 64KRASG12PEH
T2 sequence (Q07889 1-1333): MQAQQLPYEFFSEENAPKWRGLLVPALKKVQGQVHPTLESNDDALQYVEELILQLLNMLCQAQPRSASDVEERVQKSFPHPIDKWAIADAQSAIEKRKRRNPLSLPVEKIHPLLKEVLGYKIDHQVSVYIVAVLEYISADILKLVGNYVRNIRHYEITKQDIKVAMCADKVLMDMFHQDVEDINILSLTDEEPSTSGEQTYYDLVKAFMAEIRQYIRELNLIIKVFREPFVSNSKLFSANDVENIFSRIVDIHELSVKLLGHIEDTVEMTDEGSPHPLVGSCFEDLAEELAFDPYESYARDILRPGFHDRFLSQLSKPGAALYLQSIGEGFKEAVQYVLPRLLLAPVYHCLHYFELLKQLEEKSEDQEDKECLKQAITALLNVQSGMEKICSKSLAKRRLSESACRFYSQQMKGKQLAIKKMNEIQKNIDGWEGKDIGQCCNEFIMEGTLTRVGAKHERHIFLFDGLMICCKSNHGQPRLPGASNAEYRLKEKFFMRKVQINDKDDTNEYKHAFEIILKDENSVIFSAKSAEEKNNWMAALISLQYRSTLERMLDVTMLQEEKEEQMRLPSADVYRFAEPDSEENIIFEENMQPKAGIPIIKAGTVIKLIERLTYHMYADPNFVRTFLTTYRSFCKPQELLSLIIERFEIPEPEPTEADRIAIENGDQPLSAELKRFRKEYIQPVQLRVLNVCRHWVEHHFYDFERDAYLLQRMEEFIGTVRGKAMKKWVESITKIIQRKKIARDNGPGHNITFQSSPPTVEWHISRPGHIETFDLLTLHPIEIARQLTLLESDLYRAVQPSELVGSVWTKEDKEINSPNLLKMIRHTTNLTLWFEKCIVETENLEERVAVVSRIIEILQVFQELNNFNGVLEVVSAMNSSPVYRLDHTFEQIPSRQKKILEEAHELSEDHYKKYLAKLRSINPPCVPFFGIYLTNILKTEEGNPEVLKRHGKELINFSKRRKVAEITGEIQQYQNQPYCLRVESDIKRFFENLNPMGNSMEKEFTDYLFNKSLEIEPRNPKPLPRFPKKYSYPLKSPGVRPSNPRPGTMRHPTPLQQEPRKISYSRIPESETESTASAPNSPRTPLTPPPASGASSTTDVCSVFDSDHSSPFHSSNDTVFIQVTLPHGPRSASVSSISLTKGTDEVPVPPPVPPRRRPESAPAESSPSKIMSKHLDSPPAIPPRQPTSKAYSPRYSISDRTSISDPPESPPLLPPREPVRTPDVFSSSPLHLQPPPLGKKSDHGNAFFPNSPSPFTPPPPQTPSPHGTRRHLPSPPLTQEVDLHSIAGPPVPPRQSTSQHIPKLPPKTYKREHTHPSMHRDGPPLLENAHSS
As to the kind of experiment: KRAS G12C::SOS1 protein-protein interaction (PPI) inhibition assay (HTRF). In kind it is binding. An outline of the steps:
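Compounds, at eight 3-fold dilutions from 3 µM, were mixed with GTP-loaded Tag1-KRAS G12C, Tag2-SOS1 and a terbium-cryptate donor plus XL665 acceptor antibody pair. After 2 h at room temperature, time-resolved FRET reported the KRAS–SOS1 interaction.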

Experiment [3] deals with lung cancer cell line NCI-H358 having the KRAS G12C variant. As to the kind of experiment: Cancer cell growth inhibition, 3D spheroids (CellTiter-Glo 3D). In kind it is cell-based. The conditions noted are these: Homo sapiens, NCI-H358, 120 h, read-out: H358 cell viability. As for the experimental part:
Thereafter, the plate with the cells cultured was adapted to room temperature for 10 minutes, and then 50 µL of CellTiter-Glo® 3D Cell Viability Assay (PROMEGA, G9683) solution was dispensed, and reacted on a horizontal stirrer at a speed of 300 RPM for 30 minutes to induce the cell lysis. […] Thereafter, based on the measured values, the degree of cell growth in the well treated with each compound was calculated when the final cell density value of the well not treated with the test substance was set to 100%.
For orientation: In ATP-based viability assays light output follows the ATP content of the culture.

[4] abbreviates: GST-KRAS G12D, HIS-SOS1cat, compound 128 pM to 10 µM; read-out: SOS-catalyzed nucleotide exchange assay.
[5] abbreviates: 8 concentrations from 3 µM, three replicates; read-out: KRAS G12C::SOS1 PPI.
Where [6] appears, read: 3D spheroids, 0.002-10 µM, 5 days.

Turning to `Cc1cc(C(=O)N[C@H](C)c2cccc(C(F)(F)CO)c2F)nn(-c2cncc(-c3cnnn3C)c2)c1=O` [Example 1-23, N-[(1R)-1-[3-(1,1-difluoro-2-hydroxy-ethyl)-2-fluoro-phenyl]ethyl]-5-methyl-1-[5-(3-methyltriazol-4-yl)-3-pyridyl]-6-oxo-pyridazine-3-carboxamide], the IC50 is < 50 nM in experiment [1] (setting [4]), < 50 nM in experiment [2] (setting [5]) and < 1000 nM in experiment [3] (setting [6]).

Consider `C[C@@H](NC(=O)c1ccc(=O)n(-c2cncc(-c3cnnn3C)c2)c1)c1cccc(C(F)(F)F)c1F` [Example 1-24, N-[(1R)-1-[2-fluoro-3-(trifluoromethyl)phenyl]ethyl]-1-[5-(3-methyltriazol-4-yl)-3-pyridyl]-6-oxo-pyridine-3-carboxamide], for which the IC50 in experiment [1] (setting [4]) was < 50 nM; in experiment [2] (setting [5]), < 50 nM; in experiment [3] (setting [6]), < 1000 nM.

As for `CCn1nncc1-c1cncc(-n2nc(C(=O)N[C@H](C)c3cccc(C(F)(F)F)c3F)cc(C)c2=O)c1` [Example 1-25, 1-[5-(3-ethyltriazol-4-yl)-3-pyridyl]-N-[(1R)-1-[2-fluoro-3-(trifluoromethyl)phenyl]ethyl]-5-methyl-6-oxo-pyridazine-3-carboxamide], the values for the IC50 in experiment [1] (setting [4]), in experiment [2] (setting [5]) and in experiment [3] (setting [6]) were < 50 nM, 50 to 150 nM and < 1000 nM, respectively.

Regarding `Cc1ncc(-n2nc(C(=O)N[C@H](C)c3cccc(C(F)(F)F)c3F)ccc2=O)cc1-c1cnnn1C` [Example 1-26, N-[(1R)-1-[2-fluoro-3-(trifluoromethyl)phenyl]ethyl]-1-[6-methyl-5-(3-methyltriazol-4-yl)-3-pyridyl]-6-oxo-pyridazine-3-carboxamide], the IC50 is 50 to 150 nM in experiment [1] (setting [4]), 50 to 150 nM in experiment [2] (setting [5]) and < 1000 nM in experiment [3] (setting [6]).

Consider `Cc1ncc(-n2nc(C(=O)N[C@H](C)c3cccc(C(F)(F)CO)c3F)ccc2=O)cc1-c1cnnn1C` [Example 1-29], for which the results for the IC50 in experiment [1] (setting [4]), in experiment [2] (setting [5]) and in experiment [3] (setting [6]) were 50 to 150 nM, < 50 nM and < 1000 nM, respectively.

As for `C[C@@H](NC(=O)c1ccc(=O)n(-c2cnnc(-c3cnnn3C)c2)n1)c1cccc(C(F)(F)CO)c1F` [Example 1-37, N-{(1R)-1-[3-(1,1-difluoro-2-hydroxyethyl)-2-fluoro-phenyl]ethyl}-6'-(1-methyl-1H-1,2,3-triazol-5-yl)-6-oxo-6H-[1,4'-bipyridazine]-1,6-dihydro-3-carboxamide], the IC50 in experiment [1] (setting [4]) was 50 to 150 nM; in experiment [2] (setting [5]), 50 to 150 nM; in experiment [3] (setting [6]), > 3000 nM.

As for `Cc1cc(C(=O)N[C@H](C)c2cccc(C(F)(F)CO)c2F)nn(-c2cncc(-c3cnnn3C(C)C)c2)c1=O` [Example 1-39, N-{(R)-1-[3-(1,1-difluoro-2-hydroxyethyl)-2-fluorophenyl]ethyl}-1-[5-(1-isopropyl-1H-1,2,3-triazol-5-yl)-3-pyridyl]-5-methyl-6-oxo-1,6-dihydropyridazine-3-carboxamide], the values for the IC50 in experiment [1] (setting [4]), in experiment [2] (setting [5]) and in experiment [3] (setting [6]) were < 50 nM, < 50 nM and < 1000 nM, respectively.

Turning to `Cc1cc(C(=O)N[C@H](C)c2cccc(C(F)(F)CO)c2F)nn(-c2cncc(-c3cnnn3C3CC3)c2)c1=O` [Example 1-40, N-{(R)-1-[3-(1,1-difluoro-2-hydroxyethyl)-2-fluorophenyl]ethyl}-1-[5-(1-cyclopropyl-1H-1,2,3-triazol-5-yl)-3-pyridyl]-5-methyl-6-oxo-1,6-dihydropyridazine-3-carboxamide], the IC50 in experiment [1] (setting [4]) was < 50 nM; in experiment [2] (setting [5]), < 50 nM; in experiment [3] (setting [6]), < 1000 nM.

Turning to `CCc1cc(C(=O)N[C@H](C)c2cccc(C(F)(F)CO)c2F)nn(-c2cncc(-c3cnnn3C3CC3)c2)c1=O` [Example 1-42, N-{(R)-1-[3-(1,1-difluoro-2-hydroxyethyl)-2-fluorophenyl]ethyl}-1-[5-(1-cyclopropyl-1H-1,2,3-triazol-5-yl)-3-pyridyl]-5-ethyl-6-oxo-1,6-dihydropyridazine-3-carboxamide], the figures for the IC50 in experiment [1] (setting [4]), in experiment [2] (setting [5]) and in experiment [3] (setting [6]) were < 50 nM, < 50 nM and < 1000 nM, respectively.

For the molecule `C[C@@H](NC(=O)c1ccc(=O)n(-c2cnc(N3CCOCC3)c(-c3cnnn3C)c2)n1)c1cccc(C(F)(F)F)c1F` [Example 1-46, N-{(R)-1-[2-fluoro-3-(trifluoromethyl)phenyl]ethyl}-1-[5-(1-methyl-1H-1,2,3-triazol-5-yl)-6-morpholino-3-pyridyl]-6-oxo-1,6-dihydropyridazine-3-carboxamide], the IC50 in experiment [1] (read-out: SOS-catalyzed nucleotide exchange assay; GST-KRAS G12D, HIS-SOS1cat, compound 128 pM to 10 µM) is 50 to 150 nM; in experiment [2] (read-out: KRAS G12C::SOS1 PPI; 8 concentrations from 3 µM, three replicates), 50 to 150 nM; in experiment [3] it was < 1000 nM.

For `C[C@@H](NC(=O)c1ccc(=O)n(-c2cncc(-c3cnnn3C3CC3)c2)n1)c1cccc(C(F)(F)F)c1F` [Example 1-50, N-[(1R)-1-[2-fluoro-3-(trifluoromethyl)phenyl]ethyl]-1-[5-(1-cyclopropyl-1H-1,2,3-triazol-5-yl)-3-pyridyl]-6-oxo-pyridazine-3-carboxamide], the IC50 in experiment [1] (setting [4]) was < 50 nM; in experiment [2] (setting [5]), < 50 nM; in experiment [3] (setting [6]), < 1000 nM.

On to `CC(C)n1nncc1-c1cncc(-n2nc(C(=O)N[C@H](C)c3cccc(C(F)(F)CO)c3F)ccc2=O)c1` [Example 1-52, N-[(1R)-1-[3-(1,1-difluoro-2-hydroxy-ethyl)-2-fluoro-phenyl]ethyl]-1-[5-(1-isopropyl-1H-1,2,3-triazol-5-yl)-3-pyridyl]-6-oxo-pyridazine-3-carboxamide], for which the IC50 is < 50 nM in experiment [1] (setting [4]), 50 to 150 nM in experiment [2] (setting [5]) and < 1000 nM in experiment [3] (setting [6]).

On to `C[C@@H](NC(=O)c1ccc(=O)n(-c2cncc(-c3cnnn3C3CC3)c2)n1)c1cccc(C(F)(F)CO)c1F` [Example 1-53, N-[(1R)-1-[3-(1,1-difluoro-2-hydroxy-ethyl)-2-fluoro-phenyl]ethyl]-1-[5-(1-cyclopropyl-1H-1,2,3-triazol-5-yl)-3-pyridyl]-6-oxo-pyridazine-3-carboxamide], for which the IC50 in experiment [1] (setting [4]) was < 50 nM; in experiment [2] (setting [5]), < 50 nM; in experiment [3] (setting [6]), < 1000 nM.

In the case of `C[C@@H](NC(=O)c1ccc(=O)n(-c2cncc(-c3cnnn3C3CCC3)c2)n1)c1cccc(C(F)(F)F)c1F` [Example 1-54, N-[(1R)-1-[2-fluoro-3-(trifluoromethyl)phenyl]ethyl]-1-[5-(1-cyclobutyl-1H-1,2,3-triazol-5-yl)-3-pyridyl]-6-oxo-pyridazine-3-carboxamide], the IC50 in experiment [1] (setting [4]) was < 50 nM; in experiment [2] (setting [5]) it was 50 to 150 nM; in experiment [3] (setting [6]), < 1000 nM.

Values taken from EP4667464A1 (Cyrus Therapeutics Inc., priority 2023, dated 2024).
